Measured values reported in US6605645B2, “Linear polyamine compounds and polyamine-based anti-tumor agents” (Riken, priority 1998, dated 2003).
Read-outs that look alike come from different tables or passages of the source.

Legend:
Assay type in all cases: cell-based
[1] = test system: lung cancer (Lu) cell lines; experiment: HCC panel drug sensitivity test, lung cancer lines; conditions: Homo sapiens
Description: (§1) For the assay of anticancer effect, used was an HCC panel comprising 39 cell lines in total: 7 cell lines of lung cancer (Lu), 6 cell lines of stomach cancer (St), 5 cell lines of colon cancer (Co), 5 cell lines of ovarian cancer (Ov), 6 cell lines of brain tumor (CNS), 5 cell lines of breast cancer (Br), 2 cell lines of renal cancer (Re), 2 cell lines of prostate cancer (xPg) and 1 cell line of melanoma (Me). These were used as one panel, and an in-vitro drug sensitivity test was performed by using the above three compounds to obtain sensitivity patterns against each compound (mean graphs mentioned below). Further, the mean graphs obtained as the results of the above sensitivity test were compared with data in a database.
(§2) Specifically, the drug sensitivity test was performed according to the following procedures. The above 39 cancer cell lines were seeded to a 96-well plate and incubated overnight. On the following day, sample solutions each containing each of the above three compounds (5 doses, usually from 10^-4 M to 10^-8 M with 1 log intervals, the highest concentration is referred to as “High Conc”) were added to the above 96-well plate and cultured for further 2 days. Subsequently, the cell proliferation was calorimetrically determined in the obtained plate by using Sulfo Rhodamine B.
(§3) In the data analysis, GI50 (concentration at which cell proliferation is inhibited to 50% of a control) is obtained as a parameter for data analysis using the cell number immediately before exposure of cells to the test compound (Time Zero) as a standard. Specifically, the obtained data is used for the following calculation:
(§4) 1) If a mean optical density value at each concentration (OD test) is larger than the OD value at Time Zero (Tz), i.e., OD test >Tz, then percent growth (PG %)=((OD test−Tz)/(OD control−Tz))×100, wherein 1 OD control is the OD value of control. On the contrary, if OD test <Tz, then PG %=((OD test−Tz)/Tz)×100. In this case, PG % is a negative value.
(§5) 2) The above PG % values obtained for each cell line are plotted against concentrations (logarithm) according to the organ cancer type. The concentration at the point where each curve intersects with a horizontal line, provided at PG 50%, corresponds to log GI50.

[2] = test system: ovarian cancer (Ov) cell lines; experiment: HCC panel drug sensitivity test, ovarian cancer lines; conditions: Homo sapiens
Description: as §1, §2, §3, §4, §5

[3] = test system: brain tumor (CNS) cell lines; experiment: HCC panel drug sensitivity test, brain tumor lines; conditions: Homo sapiens
Description: as §1, §2, §3, §4, §5

[4] = test system: HCC panel comprising 39 cell lines; experiment: HCC panel in-vitro drug sensitivity test (Sulfo Rhodamine B), anticancer effect on cultured human cancer cell lines; conditions: for Delta / Range: HCC panel log GI50; for Delta: criterion ≧ 0.5; for Range: criterion ≧ 1.0; for evaluation as anticancer agent (criteria A-D: novelty, MG-MID, Delta/Range, COMPARE): HCC panel mean graph evaluation; for GI50: Homo sapiens
Description: The anticancer effect of each compound was determined by using the obtained concentration.
as §1, §2
The obtained data of the measurement results are shown as mean graphs. Mean graphs (also referred to as fingerprints) visually expresses effective concentration deviations of a sample substance against individual cancer cell lines so that the sensitivity of each cancer cell line against the sample can be recognized at a glance. The mean graph is also referred to as fingerprint because it represents a pattern unique to each drug.
as §3, §4, §5
3) Then, “mean graphs” are created. Mean log GI50 values are obtained for all of the assayed cell lines and referred to as mean graph midpoints (MG-MID). A difference between each of the mean values and the log GI50 value for each cell line is obtained (that is, GI50 for each cell line is represented as a logarithmic value of a multiple or an aliquot of the mean value). The resulting differences are depicted as bar charts extending a left or right side from the center line of mean log GI50 (scale 0) to obtain a mean graph. The higher differential sensitivity a cell line has, the longer the bar extends to the right. One scale corresponds to 1 log. The value of “Delta” provided at the bottom of the mean graph represents the difference between the value for the most sensitive cell line and the mean value. The value of “Range” provided below “Delta” represents the difference between the log GI50 values of the most sensitive cell line and the least sensitive one. […]

[5] = test system: colon cancer (Co) cell lines; experiment: HCC panel drug sensitivity test, colon cancer lines; conditions: Homo sapiens
Description: as §1, §2, §3, §4, §5

[6] = test system: prostate cancer (xPg) cell lines; experiment: HCC panel drug sensitivity test, prostate cancer lines; conditions: Homo sapiens; DU-145 (xPg)
Description: as §1
(§6) Specifically, the drug sensitivity test was performed according to the following procedures. The above 39 cancer cell lines were seeded to a 96-well plate and incubated overnight. On the following day, sample solutions each containing each of the above three compounds (5 doses, usually from 10^-4 M to 10^-8 M with 1 log intervals, the highest concentration is referred to as “High Conc”) were added to the above 96-well plate and cultured for further 2 days. Subsequently, the cell proliferation was calorimetrically determined in the obtained plate by using Sulfo Rhodamine B. […]

[7] = test system: breast cancer (Br) cell lines; experiment: HCC panel drug sensitivity test, breast cancer lines; conditions: Homo sapiens
Description: as §1, §2, §3, §4, §5

[8] = test system: stomach cancer (St) cell lines; experiment: HCC panel drug sensitivity test, stomach cancer lines; conditions: Homo sapiens
Description: as §1, §2, §3, §4, §5

melanoma (Me) cell line = experiment: HCC panel drug sensitivity test, melanoma line; conditions: Homo sapiens; LOX-IMVI (Me)
Description: as §1, §6

[9] = DMS-114, DMS114 (Lu), read-out: log GI50 (converted)
[10] = DMS-273, DMS273 (Lu), read-out: log GI50 (converted)
[11] = A549 (Lu), read-out: log GI50 (converted)
[12] = NCI-H23 (Lu), read-out: log GI50 (converted)
[13] = NCI-H226 (Lu), read-out: log GI50 (converted)
[14] = NCI-H460 (Lu), read-out: log GI50 (converted)
[15] = NCI-H522 (Lu), read-out: log GI50 (converted)
[16] = OVCAR-3 (Ov), read-out: log GI50 (converted)
[17] = OVCAR-4 (Ov), read-out: log GI50 (converted)
[18] = OVCAR-5 (Ov), read-out: log GI50 (converted)
[19] = OVCAR-8 (Ov), read-out: log GI50 (converted)
[20] = SF-268 (CNS), read-out: log GI50 (converted)
[21] = SF-539 (CNS), read-out: log GI50 (converted)
[22] = SNB-75 (CNS), read-out: log GI50 (converted)
[23] = 48 h, logarithmic values of molar concentration, for many cancer cell lines of the HCC panel, cultured 2 days, Sulfo Rhodamine B, read-out: log GI50 (concentration at which cell proliferation is inhibited to 50% of the control) (converted)
[24] = mean over HCC panel, criterion <−5, read-out: MG-MID (log GI50) (converted)

| GI50 ([5]; HCC 2998, HCC2998 (Co)) | GI50 ([5]; HCT-116 (Co)) | GI50 ([5]; HT-29 (Co)) | GI50 [1, 9] | GI50 [1, 10] | GI50 [1, 11] | GI50 [1, 12] | GI50 [1, 13] | GI50 [1, 14] | GI50 [1, 15] | GI50 ([7]; HBC4, HBC-4 (Br)) | GI50 ([7]; HBC5, HBC-5 (Br)) | GI50 ([7]; MCF7, MCF-7 (Br)) | GI50 ([7]; BSY-1 (Br)) | GI50 ([8]; MKN-1, MKN1 (St)) | GI50 ([8]; MKN-7, MKN7 (St)) | GI50 ([8]; MKN-28, MKN28 (St)) | SMILES | Delta [4] | Range [4] | evaluation as anticancer agent (criteria A-D: novelty, MG-MID, Delta/Range, COMPARE) [4] | other results |
| --- | --- | --- | --- | --- | --- | --- | --- | --- | --- | --- | --- | --- | --- | --- | --- | --- | --- | --- | --- | --- | --- |
| – | – | – | – | – | – | – | – | – | – | – | – | – | – | – | – | – | CCNCCCCNCCCCCCCCNCCCCNCC [BET484, 1,18-bis(ethylamino)-5,14-diazaoctadecane] | 1.45 | 1.62 | the most interesting | GI50 ([1]; A549, read-out: log GI50 (converted)): 16.2 µM; GI50 ([1]; DMS-273, read-out: log GI50 (converted)): 3.02 µM; GI50 ([2]; OVCAR-3, read-out: log GI50 (converted)): 20 µM; GI50 ([2]; OVCAR-4, read-out: log GI50 (converted)): 5.89 µM; GI50 ([2]; OVCAR-5, read-out: log GI50 (converted)): 72.4 µM; GI50 ([3]; read-out: log GI50, SF-539 (CNS) (converted)): 7.94 µM; GI50 ([3]; read-out: log GI50, SNB-75 (CNS) (converted)): 12.9 µM; GI50 ([4]; 48 h, read-out: log GI50 (concentration at which cell proliferation is inhibited to 50% of the control) (converted)): < 100 µM; GI50 ([4]; read-out: MG-MID (log GI50) (converted)): 67.6 µM |
| 10.2 µM | 6.92 µM | 8.71 µM | 3.8 µM | 4.17 µM | 2.82 µM | 4.37 µM | 9.12 µM | 16.6 µM | 3.24 µM | 4.57 µM | 2.24 µM | 56.2 µM | 7.08 µM | 12 µM | 4.37 µM | 5.25 µM | C(CCCNCCCCNCC1CC1)CCCNCCCCNCC1CC1 [BCPM474] | 0.84 | 1.76 | the most interesting | GI50 ([5]; KM12, KM-12 (Co)): 28.2 µM; GI50 ([5]; HCT-15 (Co)): 37.2 µM; GI50 [6]: 67.6 µM; GI50 ([8]; MKN-45, MKN45 (St)): 12 µM; GI50 ([8]; MKN-74, MKN74 (St)): 47.9 µM; GI50 ([8]; St-4 (St)): 6.92 µM; GI50 [2, 16]: 1.66 µM; GI50 [2, 17]: 4.17 µM; GI50 [2, 18]: 5.37 µM; GI50 [2, 19]: 2.75 µM; GI50 ([2]; SK-OV-3 (Ov), read-out: log GI50 (converted)): 5.75 µM; GI50 [3, 20]: 4.68 µM; GI50 ([3]; SF-295 (CNS), read-out: log GI50 (converted)): 8.71 µM; GI50 [3, 21]: 3.47 µM; GI50 [3, 22]: 3.63 µM; GI50 (melanoma (Me) cell line): 30.9 µM; GI50 [4, 23]: < 100 µM; GI50 [4, 24]: 11.5 µM |
| 63.1 µM | 6.76 µM | 23.4 µM | 4.37 µM | 4.37 µM | 2.82 µM | 3.55 µM | 7.24 µM | 9.77 µM | 1.82 µM | 6.92 µM | 0.891 µM | 13.8 µM | 3.55 µM | 7.24 µM | 4.17 µM | 4.68 µM | C(CCCNCCCCNCC1CC1)CCNCCCCNCC1CC1 [BCPM464, 1,16-bis(cyclopropylmethylamino)-5,12-diazahexadecane] | 1.19 | 2.05 | the most interesting | GI50 ([8]; MKN-45, MKN45 (St)): 6.46 µM; GI50 ([8]; St-4 (St)): 6.46 µM; GI50 [2, 16]: 3.02 µM; GI50 [2, 17]: 2.88 µM; GI50 [2, 18]: 4.37 µM; GI50 [2, 19]: 5.75 µM; GI50 [3, 20]: 87.1 µM; GI50 [3, 21]: 3.16 µM; GI50 [3, 22]: 3.31 µM; GI50 ([3]; U251 (CNS), read-out: log GI50 (converted)): 60.3 µM; GI50 (melanoma (Me) cell line): 6.31 µM; GI50 [4, 23]: < 100 µM; GI50 [4, 24]: 13.8 µM |
